Measured values published in publication PMC8397425, “A Strategy to Conjugate Bioactive Fragments to Cytotoxic Diiron Bis(cyclopentadienyl) Complexes” (Organometallics, 2021).

Tests used:
[1] = test system: natural double-stranded DNA from calf thymus; assay: Ethidium bromide (EB) exchange test with DNA; type: binding; details: NaCl 0.1 M, NaCac 0.01 M, T = 25 °C; complex 1.4–135 μM
Protocol: The ability of [4]CF3SO3 and [9]CF3SO3 to interact with natural DNA was studied using the ethidium bromide (EB) exchange test (Figure 6), with the concentration of the complexes beingin the 1.5–124 μM range for [4]CF3SO3 and 1.4–135 μM for [9]CF3SO3. Blank experiments were carried out with the two bioactive molecules and also with DMSO to check for solvent/dilution effects. […] However, EB exchange titrations are suitable to recognize fast noncovalent binding events, but not subsequent slow covalent binding. […]
Ethidium bromide (EB, ≥98.0%), bovine serum albumin (BSA, lyophilized powder, crystallized, ≥98.0%), and natural double-stranded DNA from calf thymus (DNA, lyophilized powder, Na^+ salt in the form of fibers) were purchased from Merck, while anhydrous guanosine 5′-monophosphate disodium salt (Na2[GMP], >98.0%) was purchased from TCI Chemicals. […] Molar concentrations of solutions of EB (CEB), BSA (CBSA), and DNA (CDNA) were determined by absorbance measurements (εEB^480 nm = 5700 M^–1 cm^–1; εBSA^278 nm = 44000 M^–1 cm^–1; εDNA^260 nm = 13200 M^–1 cm^–1 for a concentration expressed in base pairs). […] In EB/DNA exchange experiments, EB was added to DNA until the fluorescence emission at λex = 520 nm/λem = 595 nm (diagnostic wavelengths for the DNA-intercalated EB only) started to reach the plateau (CEB = 5.60 × 10^–5 M, CDNA = 1.15 × 10^–4 M). […]

COX-2 enzyme = target: T1, COX-2 enzyme (Homo sapiens, UniProt P35354); assay: COX-2 enzyme inhibition assay (fluorimetric); type: biochemical; details: residual enzyme activity, 25 °C, pH 8, mean ± SD
T1 construct: purchased Cayman Chemical Company
T1 sequence (P35354 18-604): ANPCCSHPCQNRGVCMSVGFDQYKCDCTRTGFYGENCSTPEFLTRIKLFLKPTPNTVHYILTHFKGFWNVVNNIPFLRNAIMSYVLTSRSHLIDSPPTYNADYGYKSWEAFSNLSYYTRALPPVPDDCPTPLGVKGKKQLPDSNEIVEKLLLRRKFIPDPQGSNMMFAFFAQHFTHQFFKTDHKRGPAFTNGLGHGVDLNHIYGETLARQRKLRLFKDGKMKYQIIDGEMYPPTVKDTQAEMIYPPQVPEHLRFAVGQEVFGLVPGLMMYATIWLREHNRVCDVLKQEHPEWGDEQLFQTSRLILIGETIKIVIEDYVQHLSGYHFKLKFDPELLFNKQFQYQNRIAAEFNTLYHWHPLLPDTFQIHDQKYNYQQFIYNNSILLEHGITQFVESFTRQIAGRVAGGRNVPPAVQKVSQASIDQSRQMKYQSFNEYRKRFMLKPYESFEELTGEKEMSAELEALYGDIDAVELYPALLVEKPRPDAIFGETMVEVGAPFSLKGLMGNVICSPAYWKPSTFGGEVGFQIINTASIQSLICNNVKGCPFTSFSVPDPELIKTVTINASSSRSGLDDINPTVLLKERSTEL
Protocol: Next, the possible role of the bioactive fragment in the complexes was studied.
The IC50 value was obtained using GraphPad Prism 7 software. All of the inhibitor assays were performed at least in triplicate.

[2] = test system: guanosine 5′-monophosphate (disodium salt, Na2[GMP]); assay: Reaction with model nucleotide GMP (mass spectrometry); details: D2O/CD3OD, 1 equiv Na2[GMP], 24 h at 37 °C
Protocol: The ability of [4]CF3SO3 and [9]CF3SO3 to interact with natural DNA was studied using the ethidium bromide (EB) exchange test (Figure 6), with the concentration of the complexes beingin the 1.5–124 μM range for [4]CF3SO3 and 1.4–135 μM for [9]CF3SO3. Blank experiments were carried out with the two bioactive molecules and also with DMSO to check for solvent/dilution effects. […] However, EB exchange titrations are suitable to recognize fast noncovalent binding events, but not subsequent slow covalent binding. Therefore, since chlorambucil is a DNA-alkylating agent, we studied the possible reaction of [9]CF3SO3 with the nucleotide guanosine 5′-monophosphate (disodium salt, Na2[GMP]; see Figure 4) as a model for DNA binding. Complex [9]CF3SO3 was incubated with a D2O/CD3OD mixture containing GMP for 24 h at 37 °C.
In order to analyze the interaction with a model nucleotide, a freshly prepared solution of [9]CF3SO3 (2 mg) in D2O/CD3OD (5/3 v/v) was treated with 1 equiv of anhydrous Na2[GMP]. The resulting mixture was maintained at 37 °C for 24 h, and then the final solution was filtered in order to remove some solid and analyzed by mass spectrometry. HPLC-MS(+): m/z found 1087.2451 [9^GMP + Na]^+, calcd for C47H53Fe2N8NaO12P 1087.2117; m/z found 555.0666 [9^GMP + 2Na]^2+, calcd for C47H53Fe2N8Na2O12P 555.1008. The isotopic patterns fit well the calculated patterns.

Row | Substance | interaction with natural DNA (EB displacement) [1] | IC50 (COX-2 enzyme) [µM] | conversion into the neutral GMP adduct 9^GMP [2]
1 | [Fe2Cp2(CO)(μ-CO){μ-η^1:η^3-Cγ(3-C6H4OC(=O)C6H4OC(=O)Me)CβHCαNMe(Xyl)}]CF3SO3 [[4]CF3SO3] | interact weakly with natural DNA | 30 ± 3 | 
2 | [Fe2Cp2(CO)(μ-CO){μ-η^1:η^3-Cγ(3-C6H4NHC(=O)(CH2)3C6H4N(CH2CH2Cl)2)CβHCαNMe2}]CF3SO3 [[9]CF3SO3] | interact weakly with natural DNA |  | almost complete conversion
